From publication PMC7575488, “Phase 1 dose-escalation study of a novel oral PI3K/mTOR dual inhibitor, LY3023414, in patients with cancer” (Investigational New Drugs, 2020)

Experiment: Phase 1 dose-escalation: tolerability and safety (DLTs, adverse events, CTCAE v4.0)
Format: in vivo
Protocol: This was a non-randomized, single-arm, open-label, Phase 1, dose-escalation study of oral LY3023414 in Japanese patients with advanced malignancies. A modified 3 + 3 dose-escalation method was used to evaluate the dose-limiting toxicity (DLT) of LY3023414. Enrollment of 3 patients and 6 patients were planned for dose level 1 (150 mg) and dose level 2 (200 mg), respectively. Dose-escalation decisions were made by agreement between investigators and the sponsor, with a consultation with the Safety Assessment Committee (SAC), as needed. If 2 patients experienced DLTs at any given dose, the sponsor examined safety data and consulted the SAC. Following consultation, the sponsor and investigators decided whether the dose was intolerable or additional patients were to be enrolled to the same or an intermediate dose level for further investigation. If ≥3 patients experienced DLTs at any given dose, the dose was considered intolerable for Japanese patients. No intrapatient dose escalation was allowed.
The study evaluated 2 dose levels, 150 mg or 200 mg LY3023414 monotherapy administered in the morning and evening, approximately 12 h apart. The cycle was of 21 days. […] No dose reductions were allowed during Cycle 1, unless a DLT was reported. Dose reductions were allowed in Cycle 2 and beyond at the discretion of the investigator. Patients were treated until a discontinuation criterion was met.
Tolerability and safety were assessed through clinical and laboratory evaluations at weekly intervals for the first 2 cycles and at least every 2 weeks thereafter. Adverse events (AEs) were graded according to the Common Terminology Criteria for Adverse Events Version 4.0 and coded to Medical Dictionary for Regulatory Activities preferred terms. All patients who received ≥1 dose of the study drug were included in the safety analysis.
A DLT was defined as any AE during Cycle 1 which was possibly related to study treatment with LY3023414 and fulfilled any of the following main criteria: Grade ≥ 3 non-hematological toxicity (except nausea, vomiting, diarrhea, constipation, anorexia, skin rash, or asymptomatic electrolyte abnormality for ≤3 days and responsive to appropriate treatment; transient ≤5 days hyperglycemia; and transient ≤7 days mucositis), Grade 4 hematological toxicity of ≥7 days, Grade 3 thrombocytopenia with Grade ≥ 2 bleeding or febrile neutropenia, requirement of platelet or packed red blood transfusion, and any toxicities requiring dose omissions of >20% of intended doses in Cycle 1. The maximum tolerated dose was defined as the highest dose of LY3023414 not causing a DLT in more than 33% of patients.

Compound: CO[C@@H](C)Cn1c(=O)n(C)c2cnc3ccc(-c4cncc(C(C)(C)O)c4)cc3c21 [LY3023414]
- Maximum tolerated dose (BID dosing, Japanese patients): 200 mg
- Fatal events (due to AEs or any other reason): no fatal events
- ALT increased, AE possibly related to study drug (human, in vivo): 3 (25.0) n (%)
- AST increased, AE possibly related to study drug (human, in vivo): 3 (25.0) n (%)
- Anemia, AE possibly related to study drug (human, in vivo): 5 (41.7) n (%)
- Appetite decreased, AE possibly related to study drug (human, in vivo): 7 (58.3) n (%)
- Blood creatinine increased, AE possibly related to study drug (human, in vivo): 4 (33.3) n (%)
- Diarrhea, AE possibly related to study drug (human, in vivo): 5 (41.7) n (%)
- Drug-related Grade 4 or 5 AEs (human, in vivo): No drug-related Grade 4 or 5 AEs
- Fatigue, AE possibly related to study drug (human, in vivo): 4 (33.3) n (%)
- Hyperglycemia, AE possibly related to study drug (human, in vivo): 4 (33.3) n (%)
- Hypokalemia, AE possibly related to study drug (human, in vivo): 2 (16.7) n (%)
- Hypophosphatemia, AE possibly related to study drug (human, in vivo): 4 (33.3) n (%)
- Hypotension, AE possibly related to study drug (human, in vivo): 2 (16.7) n (%)
- Nausea, AE possibly related to study drug (human, in vivo): 8 (66.7) n (%)
- Patients with at least 1 dose adjustment (human, in vivo): 33.3%
- Patients with serious AEs (human, in vivo): 3 patients
- Platelet count decreased, hematological AE possibly related to study drug (human, in vivo): 5 (41.7) n (%)
- Proteinuria, AE possibly related to study drug (human, in vivo): 4 (33.3) n (%)
- Pruritis, AE possibly related to study drug (human, in vivo): 3 (25.0) n (%)
- Pyrexia, AE possibly related to study drug (human, in vivo): 2 (16.7) n (%)
- Rash, AE possibly related to study drug (human, in vivo): 3 (25.0) n (%)
- Stomatitis, AE possibly related to study drug (human, in vivo): 9 (75.0) n (%)
- Vomiting, AE possibly related to study drug (human, in vivo): 4 (33.3) n (%)
- WBC count decreased, hematological AE possibly related to study drug (human, in vivo): 2 (16.7) n (%)
- Weight decreased, AE possibly related to study drug (human, in vivo): 2 (16.7) n (%)
- anemia, related AE Grade ≥ 3, patients (human, in vivo): 16.7%
- anemia, treatment-related AE, patients (human, in vivo): 41.7%
- decreased appetite, treatment-related AE, patients (human, in vivo): 58.3%
- decreased platelet count, treatment-related AE, patients (human, in vivo): 41.7%
- decreased weight, treatment-related AE, patients (human, in vivo): 16.7%
- decreased white blood cell count, treatment-related AE, patients (human, in vivo): 16.7%
- diarrhea, treatment-related AE, patients (human, in vivo): 41.7%
- fatigue, treatment-related AE, patients (human, in vivo): 33.3%
- hyperglycemia, related AE Grade ≥ 3, patients (human, in vivo): 16.7%
- hyperglycemia, treatment-related AE, patients (human, in vivo): 33.3%
- hypokalemia, treatment-related AE, patients (human, in vivo): 16.7%
- hypophosphatemia, related AE Grade ≥ 3, patients (human, in vivo): 16.7%
- hypophosphatemia, treatment-related AE, patients (human, in vivo): 33.3%
- hypotension, treatment-related AE, patients (human, in vivo): 16.7%
- increased alanine aminotransferase, treatment-related AE, patients (human, in vivo): 25.0%
- increased aspartate aminotransferase, treatment-related AE, patients (human, in vivo): 25.0%
- increased blood creatinine, treatment-related AE, patients (human, in vivo): 33.3%
- nausea, treatment-related AE, patients (human, in vivo): 66.7%
- proteinuria, treatment-related AE, patients (human, in vivo): 33.3%
- pruritus, treatment-related AE, patients (human, in vivo): 25.0%
- pyrexia, treatment-related AE, patients (human, in vivo): 16.7%
- rash, treatment-related AE, patients (human, in vivo): 25.0%
- stomatitis, related AE Grade ≥ 3, patients (human, in vivo): 16.7%
- stomatitis, treatment-related AE, patients (human, in vivo): 75.0%
- vomiting, treatment-related AE, patients (human, in vivo): 33.3%
- Dose-limiting toxicities (DLTs) (in vivo): No DLTs
- Patients with at least 1 AE considered possibly related to the study drug (in vivo): All patients
